How the values were obtained:
[1] = target: T1, Tyrosine-protein kinase BTK (Homo sapiens, UniProt Q06187); experiment: Inhibition of BTK (unknown origin) at 1 uM in the presence of ATP by caliper mobility shift assay relative to control
Ramos = experiment: Antiproliferative activity against human Ramos cells; format: functional, cell-based; parameters: fold change (FC): reference not given here; details: for IC50: Homo sapiens, Ramos
[2] = target: T1, Tyrosine-protein kinase BTK; experiment: Inhibition of BTK (unknown origin) at 0.1 uM in the presence of ATP by caliper mobility shift assay relative to control
JeKo-1 = experiment: Antiproliferative activity against human JeKo1 cells; format: functional, cell-based; parameters: fold change (FC): reference not given here; details: for IC50: Homo sapiens, JeKo-1
Daudi = experiment: Antiproliferative activity against human Daudi cells; format: functional, cell-based; parameters: fold change (FC): reference not given here; details: for IC50: Homo sapiens, Daudi
[3] = target: T1, Tyrosine-protein kinase BTK; experiment: Inhibition of BTK (unknown origin) in the presence of ATP by caliper mobility shift assay

T1 sequence (Q06187 whole entry): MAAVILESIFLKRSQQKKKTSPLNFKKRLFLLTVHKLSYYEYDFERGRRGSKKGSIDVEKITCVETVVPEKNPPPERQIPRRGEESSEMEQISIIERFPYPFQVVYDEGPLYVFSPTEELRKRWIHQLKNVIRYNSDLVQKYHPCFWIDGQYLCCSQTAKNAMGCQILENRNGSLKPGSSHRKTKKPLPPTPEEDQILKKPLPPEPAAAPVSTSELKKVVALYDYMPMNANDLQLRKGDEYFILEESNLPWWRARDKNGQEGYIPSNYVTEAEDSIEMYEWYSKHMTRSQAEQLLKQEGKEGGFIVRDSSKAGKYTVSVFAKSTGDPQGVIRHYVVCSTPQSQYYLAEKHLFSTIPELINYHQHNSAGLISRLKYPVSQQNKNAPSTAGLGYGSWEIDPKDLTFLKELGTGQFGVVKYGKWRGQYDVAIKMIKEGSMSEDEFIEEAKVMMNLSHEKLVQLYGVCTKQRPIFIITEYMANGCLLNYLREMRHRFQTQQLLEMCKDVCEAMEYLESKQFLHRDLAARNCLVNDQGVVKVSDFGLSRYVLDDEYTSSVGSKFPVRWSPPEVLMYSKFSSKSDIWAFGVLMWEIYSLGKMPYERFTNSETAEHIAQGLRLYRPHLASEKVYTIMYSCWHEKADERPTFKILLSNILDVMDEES

| SMILES | inhibition [1] [%] | IC50 (Ramos) [µM] | inhibition [2] [%] | IC50 (JeKo-1) [µM] | IC50 (Daudi) [µM] | IC50 [3] [µM] | fold change (FC) (Ramos) | fold change (FC) (JeKo-1) | fold change (FC) (Daudi) |
| --- | --- | --- | --- | --- | --- | --- | --- | --- | --- |
| Nc1ncnc2c1c(-c1ccc3c(c1)OCO3)cn2C[C@H]1CCCN(C[C@@H]2CO2)C1 | 70.3 | 15.1 | 34.7 | 7.96 | 10.6 |  |  |  |  |
| Nc1ncnc2c1c(-c1ccc3c(c1)OCO3)cn2[C@H]1CCN(C2COC2)C1 | 52 | > 50 | 19.7 | > 50 | > 50 | > 0.5 |  |  |  |
| Nc1ncnc2c1c(-c1cccc(-n3ncc4ccccc4c3=O)c1)cn2[C@H]1CCN(C[C@@H]2CO2)C1 | 17.5 | 15.2 | 3.41 | 15.2 | 14.6 |  |  |  |  |
| Nc1ncnc2c1c(-c1ccc3c(c1)OCO3)cn2[C@H]1CCN(CC2CCCO2)C1 (stereo partly specified) | 18.9 | 27.1 | 3.01 | 3.88 | 25.9 |  |  |  |  |
| Nc1ncnc2c1c(-c1ccc3c(c1)OCO3)cn2C[C@@H]1CCCN1C[C@@H]1CO1 | 47.6 | 29 | 13.5 | 21.6 | 19 |  |  |  |  |
| Nc1ncnc2c1c(-c1ccc3c(c1)OCO3)cn2[C@H]1CCN(CC2CC2)C1 | 15.2 | 16.9 | 0.04 | 1.45 | 24.6 |  |  |  |  |
| Nc1ncnc2c1c(-c1ccc3c(c1)OCO3)cn2C1=CCN(C[C@@H]2CO2)CC1 | 42.6 | 2.11 | 1.81 | 12.8 | 5.02 |  |  |  |  |
| Nc1ncnc2c1c(-c1ccc3c(c1)OCO3)cn2[C@H]1CCN(C(=O)c2ccccn2)C1 | 28.1 | 20.7 | 1.45 | 19.5 | 12.3 |  |  |  |  |
| CC(C)(C)c1ccc(C(=O)Nc2ccc(-c3cn([C@H]4CCN(C[C@@H]5CO5)C4)c4ncnc(N)c34)cc2)cc1 | 53.8 | 2.97 | 15.7 | 3.29 | 5.98 |  |  |  |  |
| CN(C)CC(=O)N1CC[C@H](n2cc(-c3ccc4c(c3)OCO4)c3c(N)ncnc32)C1 | 23.7 | 21 | -0.41 | 28.4 | 23.1 |  |  |  |  |
| Nc1ncnc2c1c(-c1ccc3c(c1)OCO3)cn2C[C@H]1CCN(C[C@@H]2CO2)C1 | 63.7 | 27 | 23.9 | 7.25 | 15 |  |  |  |  |
| CN(C)C(=O)N1CC[C@H](n2cc(-c3ccc4c(c3)OCO4)c3c(N)ncnc32)C1 | 42.6 | 27.7 | 1.87 | 24.2 | 14.6 |  |  |  |  |
| Nc1ncnc2c1c(-c1ccc3c(c1)OCO3)cn2[C@@H]1CCN(C[C@H]2CO2)C1 | 42 | > 50 | 15.2 | 32.5 | 53.8 | > 0.5 |  |  |  |
| Nc1ncnc2c1c(-c1cc3ccccc3o1)cn2[C@H]1CCN(C[C@@H]2CO2)C1 | 59.1 | 6.74 | 20.2 | 2.82 | 4.51 |  |  |  |  |
| Nc1ncnc2c1c(-c1ccc(Oc3ccccc3)cc1)cn2[C@H]1CCN(C[C@H]2CO2)C1 | 90.1 | > 50 | 52 | 5.08 | 15.7 | 0.0894 | 3 - 10 | 3 - 10 | 3 - 10 |
| Nc1ncnc2c1c(-c1cc3ccccc3o1)cn2[C@H]1CCN(C[C@H]2CO2)C1 | 62.9 | 1.65 | 17.4 | 0.63 | 4.21 |  |  |  |  |
| CC1(CN2CC[C@H](n3cc(-c4ccc5c(c4)OCO5)c4c(N)ncnc43)C2)COC1 | 36.1 | 20.4 | 13.9 | 19 | 44.7 | > 0.5 |  |  |  |
| CC(C)(C)c1ccc(C(=O)Nc2cccc(-c3cn([C@H]4CCN(C[C@@H]5CO5)C4)c4ncnc(N)c34)c2)cc1 | 22.2 | 4.82 | 2.29 | 2.54 | 5.97 |  |  |  |  |
| Nc1ncnc2c1c(-c1ccc3c(c1)OCO3)cn2[C@H]1CCN(S(=O)(=O)C2CC2)C1 | 37.2 | 7.79 | 1.64 | 11.8 | 16.6 |  |  |  |  |
| Nc1ncnc2c1c(-c1ccc3c(c1)OCO3)cn2CC1CCCO1 (stereo unspecified) | 21.8 | 24.2 | -6.11 | 17.1 | 20.9 |  |  |  |  |
| Nc1ncnc2c1c(-c1ccc(Oc3ccccc3)cc1)cn2[C@H]1CCN(C[C@@H]2CO2)C1 | 98.1 | 6.71 | 79.1 | 1.48 | 5.48 | 0.0311 |  |  |  |
| CCOC(=O)C(C)N1CC[C@H](n2cc(-c3ccc4c(c3)OCO4)c3c(N)ncnc32)C1 (stereo partly specified) | 44.1 | 9.92 | 5.71 | 1.21 | 25.5 |  |  |  |  |
| Nc1ncnc2c1c(-c1ccc3c(c1)OCO3)cn2[C@H]1CCN(Cc2cc(F)cc(F)c2)C1 | 30.2 | 6.6 | 6.07 | 1.69 | 11.6 |  |  |  |  |

| SMILES | inhibition [1] [%] | IC50 (Ramos) [µM] | inhibition [2] [%] | IC50 (JeKo-1) [µM] | IC50 (Daudi) [µM] | IC50 [3] [µM] | fold change (FC) (Ramos) | fold change (FC) (JeKo-1) | fold change (FC) (Daudi) |
| --- | --- | --- | --- | --- | --- | --- | --- | --- | --- |
| Nc1ncnc2c1c(-c1ccc(C(=O)Nc3ccc(Oc4ccccc4)cc3)cc1)cn2[C@H]1CCN(C[C@@H]2CO2)C1 | 36.9 | 3.63 | 7.58 | 2.07 | 4.39 |  |  |  |  |
| CC(C)(C)c1ccc(COc2ccc(-c3cn([C@H]4CCN(C[C@@H]5CO5)C4)c4ncnc(N)c34)cc2)cc1 | 7.63 | 4.21 | 3.73 | 5.97 | 6.97 |  |  |  |  |
| CC(C)(C)c1ccc(Oc2ccc(-c3cn([C@H]4CCN(C[C@@H]5CO5)C4)c4ncnc(N)c34)cc2)cc1 | 19.1 | 11.2 | 5.96 | 14.8 | 6.49 |  |  |  |  |
| C[C@@H]1C[C@H](n2cc(-c3ccc4c(c3)OCO4)c3c(N)ncnc32)CN1C[C@@H]1CO1 | 47.1 | 7.97 | 12.7 | 4.61 | 10.9 |  |  |  |  |
| Nc1ncnc2c1c(-c1ccc3c(c1)OCO3)cn2CC1CCN(C[C@@H]2CO2)CC1 | 59.9 | 10.9 | 14.2 | 15.3 | 12.5 |  |  |  |  |
| N#CCCN1CC[C@H](n2cc(-c3ccc4c(c3)OCO4)c3c(N)ncnc32)C1 | 67.8 | 13.2 | 21.6 | 1.84 | 10.2 |  |  |  |  |
| Nc1ncnc2c1c(-c1ccc3c(c1)OCO3)cn2[C@H]1CCN(C(=O)c2ccccc2)C1 | 29.4 | 35.2 | 37.1 | 17 | 8.26 |  |  |  |  |
| CC1(C(=O)N2CC[C@H](n3cc(-c4ccc5c(c4)OCO5)c4c(N)ncnc43)C2)COC1 | 22.4 | 39 | -0.35 | 36.4 | 30.5 |  |  |  |  |
| Nc1ncnc2c1c(-c1cnc3[nH]ccc3c1)cn2[C@H]1CCN(C[C@@H]2CO2)C1 | 46.6 | 4.65 | 12.8 | 9.44 | 2.99 |  |  |  |  |
| Nc1ncnc2c1c(-c1ccc3c(c1)OCO3)cn2C1CCN(C[C@@H]2CO2)CC1 | 89.4 | 32.8 | 60.2 | 12.9 | 21.3 |  |  |  |  |
| Nc1ncnc2c1c(-c1ccc(Oc3ccccc3)cc1)cn2C[C@H]1CCCN1C[C@@H](O)CO | 62.5 | 13.5 | 23.9 | 9.54 | 14.4 |  |  |  |  |
| Nc1ncnc2c1c(-c1ccc(Oc3ccccc3)cc1)cn2C[C@H]1CCCN1C(CO)CO | 54.7 | 15.3 | 18.3 | 14.5 | 28.2 |  |  |  |  |
| Nc1ncnc2c1c(-c1ccc3c(c1)OCO3)cn2[C@H]1CCN(CCCO)C1 | 22.4 | 20.9 | 8.43 | 3.13 | 29.6 |  |  |  |  |
| CC(C)(C)c1ccc(CN2CC[C@H](n3cc(-c4ccc5c(c4)OCO5)c4c(N)ncnc43)C2)cc1 | 3 | 4.41 | 0.01 | 2.07 | 13.2 |  |  |  |  |
| COCCN1CC[C@H](n2cc(-c3ccc4c(c3)OCO4)c3c(N)ncnc32)C1 | 8.09 | 21.2 | 14.3 | 6.74 | 4.3 |  |  |  |  |
| Nc1ncnc2c1c(-c1ccc3c(c1)OCO3)cn2C[C@@H]1CCCN(C[C@@H]2CO2)C1 | 49.2 | 13.1 | 16.2 | 8.85 | 10.5 |  |  |  |  |
| Nc1ncnc2c1c(-c1ccc3c(c1)OCO3)cn2[C@H]1CCN(C(=O)C2CC2)C1 | 34 |  | -3.67 |  |  | 0.045 |  |  |  |
| COC(CN1CC[C@H](n2cc(-c3ccc4c(c3)OCO4)c3c(N)ncnc32)C1)OC | 37.1 | 24.9 | 4.71 | 2.45 | 53.5 |  |  |  |  |
| Nc1ncnc2c1c(-c1ccc(NC(=O)c3ccccc3)cc1)cn2[C@H]1CCN(C[C@@H]2CO2)C1 | 22.9 | 2.25 | 2.53 | 5.39 | 3.18 |  |  |  |  |
| Nc1ncnc2c1c(-c1cnc3[nH]ccc3c1)cn2C[C@H]1CCCN1C[C@@H]1CO1 | 26.9 |  | 13.7 |  |  |  |  |  |  |
| Nc1ncnc2c1c(-c1ccc3c(c1)OCO3)nn2C[C@H]1CCCN1C[C@@H]1CO1 | 56.7 | 47.4 | 13.9 | 43.2 | 30.5 |  |  |  |  |
| Nc1ncnc2c1c(-c1ccc3c(c1)OCO3)cn2C1CCN(C2COC2)CC1 | 45.7 | 38 | 9.5 | 16.9 | 24.1 |  |  |  |  |
| Nc1ncnc2c1c(-c1ccc3c(c1)OCO3)cn2[C@H]1CCN(CC2CO2)C1 (stereo partly specified) | 96.6 |  | 70.1 |  |  | 0.0455 |  |  |  |

— ChEMBL document CHEMBL4346659, “Design, synthesis and evaluation of novel 7H-pyrrolo[2,3-d]pyrimidin-4-amine derivatives as potent, selective and reversible Bruton's tyrosine kinase (BTK) inhibitors for the treatment of rheumatoid arthritis” (Eur J Med Chem, 2019)
